From PubChem BioAssay (NCI) come the findings set out here.

Values joined by “and” are separate entries in the source; they are usually repeats but may differ in a detail not shown here. Identical values can stand only once.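 Compound exposure: 48 hours, 5 concentrations, 96-well plates. The concentration for 50% growth inhibition is given as GI50. TGI denotes the concentration required for complete inhibition of growth.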

This assay has as its system MDA-MB-468 breast. Put plainly: NCI anticancer screen, dose series, 48 h.
Consider `C[N+]1=C(/C=C\C=C\c2ccccc2)C(C)(C)c2ccccc21`, for which the GI50 was 636 nM and the TGI worked out at 4550 nM.
Turning to `S=P(N1CC1)(N1CC1)N1CC1`, the GI50 was 23700 nM and the TGI was determined as 170000 nM.
Taken in the same sequence, the figures for `C=C1CC2(OC1=O)C(=O)Nc1ccccc12` (configuration not stated) were 854 nM and 2700 nM.
Turning to `C=C1C(=O)O[C@H]2[C@H]1CC/C(Cn1cc(-c3ccccc3C(F)(F)F)nn1)=C\CC[C@@]1(C)O[C@@H]21`, the GI50 was 1140 nM and the TGI came to 2800 nM.
Taken in the same sequence, the figures for `Cc1cnc(C(=O)Nc2nc3ccc(S(=O)(=O)Nc4ccc(C5(C(F)(F)F)CC5)cc4)cc3[nH]2)cn1` were 224 nM and 1980 nM.
Consider `Cc1cnc(C(=O)NNc2nc3sc4c(c3c(=O)n2C)C(C)CCC4)cn1` (configuration not stated), for which the GI50 was 278 nM and the TGI amounted to 1070 nM.
In the case of `CN(C)c1ccc(/C=C/c2cc[n+](C)c(/C=C/c3ccc(N(C)C)cc3)c2)cc1`, the GI50 was 96.9 nM and the TGI is 537 nM.
As to `O=C1C[C@@H]2/C(=C(O)\C=C\c3ccccc3)C(=O)C=C[C@@H]2O1`, the GI50 was 1580 nM and the TGI came out at 3210 nM.
As for `CCN(CC)c1ccc(C(=O)c2ccc(N(CC)CC)cc2)cc1`, the GI50 was 298 nM and the TGI is 1660 nM.
On to `COc1cc(Nc2ncc(F)c(Nc3ccc4c(n3)N(COP(=O)(O)O)C(=O)C(C)(C)O4)n2)cc(OC)c1OC`, for which the GI50 is 1550 nM and 1650 nM; the TGI was 4740 nM and 5420 nM.
Regarding `O=C1C(Cl)=C(NCc2ccco2)C(=O)c2ccccc21`, the GI50 was 3710 nM and the TGI came to 22000 nM.
The corresponding values for `O=C(/C=C/c1ccc(C(F)(F)F)cc1)c1ccc(Nc2nc(NCCO)nc(Nc3ccc(Cl)cc3)n2)cc1` are 5540 nM and 21300 nM.
As to `CCOC(=O)c1c2c(n3ccccc13)C(=O)c1ncccc1C2=O`, the GI50 is 2770 nM and the TGI stood at 12000 nM.
The corresponding values for `Cn1cc(-c2ccc(-c3ccc(C4=NC5(CC5)C(=O)N4C[C@@H]4CCN(C(=O)C5CC5)C4)cc3)cc2)cn1` are 16900 nM and 40100 nM.
Regarding `N#C/C(=C\c1ccc(Br)cc1)n1nnc2ccc(F)cc21`, the GI50 is 271 nM and the TGI came out at 867 nM.
Take `COc1cc(C2CC(c3ccc(Nc4ccnc5cc(Cl)ccc45)cc3)=NN2c2ccc(Cl)cc2)cc(OC)c1OC` (configuration not stated): the GI50 is 908 nM and the TGI was found to be 9670 nM.
Consider `O=C1C(=O)c2cccnc2-c2ncccc21`, for which the GI50 is 193 nM and the TGI was 491 nM.
As to `CCN1CCN(CC(=O)N2c3cccc4cccc(c34)N(C(=O)CN3CCN(CC)CC3)C2c2cn(-c3ccccc3)nc2-c2cccc([N+](=O)[O-])c2)CC1`, the GI50 was 1260 nM and the TGI is 2760 nM.
As for `Cc1cn(-c2cc(NC(=O)c3ccc(C)c(Nc4nccc(-c5cccnc5)n4)c3)cc(C(F)(F)F)c2)cn1`, the GI50 is 1800 nM and 1750 nM; the TGI is 4060 nM and 8390 nM.
Turning to `O=C(OC[C@H]1O[C@H](OC(=O)c2cc(O)c(O)c(OC(=O)c3cc(O)c(O)c(O)c3)c2)[C@H](OC(=O)c2cc(O)c(O)c(OC(=O)c3cc(O)c(O)c(O)c3)c2)[C@@H](OC(=O)c2cc(O)c(O)c(OC(=O)c3cc(O)c(O)c(O)c3)c2)[C@@H]1OC(=O)c1cc(O)c(O)c(OC(=O)c2cc(O)c(O)c(O)c2)c1)c1cc(O)c(O)c(OC(=O)c2cc(O)c(O)c(O)c2)c1`, the GI50 was 4750 nM and the TGI worked out at 17800 nM.
In the case of `COc1cc(-c2nc(SCCC(C)C)nc(Nc3ccc(S(N)(=O)=O)cc3)c2C#N)cc(OC)c1OC`, the GI50 is 3070 nM and the TGI came out at 9960 nM.
For the compound `O=C1CCc2c(sc3[nH]c(=S)n(Cc4ccc(Cl)cc4)c(=O)c23)C1`, the GI50 was 299 nM and the TGI came out at 1210 nM.
Take `Cc1ccc(Cl)cc1NC(=O)c1sc2nc3c(cc2c1N)C(=O)CCC3`: the GI50 is 2740 nM and the TGI amounted to 8760 nM.
Take `COC(=O)[C@@H](C)C[C@H](Cc1ccccc1)NC(=O)c1csc([C@@H](C[C@H](C(C)C)N(C)C(=O)[C@@H](NC(=O)[C@H]2CCCCN2C)C2CC2)OC(C)=O)n1`: the TGI was above 16500 nM.
